According to patent US20100041613A1, “NOVEL ANTIBIOTIC COMPOSITIONS” (priority 2006, published 2010):
Converted amounts (≈) assume the structure as drawn.

Key:
[1] = system: methicillin resistant Staphylococcus aureus (MRSA) ATCC#33591; assay: microbe, parasite or virus in culture; format: cell-based
Experimental: (§1) Antibiotic compositions of the invention were tested for antimicrobial activity against methicillin resistant Staphylococcus aureus (MRSA) ATCC#33591 and vancomycin resistant Enterococcus faecalis (VRE) ATCC#51575. Pathogen cultures were grown in tryptic soya broth (TSB) with 5 g/L NaCl (TSB+) overnight (˜18 hrs) at 37° C. The cultures were removed from the incubator and refrigerated at least 3 hours to stop further culture growth. Determined aliquot ratios of culture to broth to obtain approximately 2.5×10^5 CFU/ml., for which accurate counts were measured by serial dilution onto Tryptic Soy Agar with 5 g/L NaCl (TSA+) plates. Two fold dilution series' of […] were prepared for MRSA and VRE, respectively. All components except thiazolyl blue tetrazolium bromide (MTT) were added to the wells prior to an initial overnight incubation at 37° C. MTT was added to each well, 29 μl or […], for MRSA or VRE plates, respectively, followed by 1 hour incubation at 37° C. Vancomycin and/or Zyvoxam were included as reference compounds with vancomycin prepared in the same way as the test compounds. Zyvoxam was supplied as a 2 mg/ml solution. Minimum inhibitory concentration (MIC) endpoints were read as the lowest concentration showing no visible growth.

[2] = system: vancomycin resistant Enterococcus faecalis (VRE) ATCC#51575; assay: organism not typed; format: cell-based
Experimental: as §1

[3] = MRSA, lowest concentration showing no visible growth, overnight incubation at 37° C.
[4] = VRE, lowest concentration showing no visible growth, overnight incubation at 37° C.

Compound: C=C1NC(=O)[C@H]([C@@H](C)CC)NC(=O)[C@H](NC(=O)C(=CC)NC(=O)[C@@H](N)[C@@H](C)CC)CSC[C@@H](C(=O)N[C@H]2C(=O)N3CCC[C@H]3C(=O)NCC(=O)N[C@H](C(=O)N[C@@H](CCCCN)C(=O)NCCCCCCNC(=O)[C@H]3NC(=O)[C@H]4NC(=O)[C@H](NC(=O)[C@@H]5NC(=O)[C@H](CC(N)=O)NC(=O)[C@H](NC(=O)[C@@H](CC(C)C)NC)[C@H](O)c6ccc(c(Cl)c6)Oc6cc5cc(c6O[C@@H]5O[C@H](CO)[C@@H](O)[C@H](O)[C@H]5O[C@H]5C[C@](C)(N)[C@H](O)[C@H](C)O5)Oc5ccc(cc5Cl)[C@H]4O)c4ccc(O)c(c4)-c4c(O)cc(O)cc43)CSC2C)NC(=O)[C@H](CC(C)C)NC1=O (stereo partly shown) [Example 2, nisin(1-12)-1,6-diaminohexane-vancomycin]
- minimum inhibitory concentration against MRSA ([1]; methicillin resistant ATCC#33591, 18 h): 0.04 µg/mL (≈ 0.0149 µM)
- minimum inhibitory concentration against VRE ([2]; vancomycin resistant (VRE) ATCC#51575, 18 h): 20 µg/mL (≈ 7.46 µM)

Compound: CN[C@H](CC(C)C)C(=O)N[C@H]1C(=O)N[C@@H](CC(N)=O)C(=O)N[C@H]2C(=O)N[C@H]3C(=O)N[C@H](C(=O)N[C@H](C(=O)O)c4cc(O)cc(O)c4-c4cc3ccc4O)[C@H](O)c3ccc(c(Cl)c3)Oc3cc2cc(c3O[C@@H]2O[C@H](CO)[C@@H](O)[C@H](O)[C@H]2O[C@H]2C[C@](C)(N)[C@H](O)[C@H](C)O2)Oc2ccc(cc2Cl)[C@H]1O [vancomycin]
- MIC ([1]; Staphylococcus aureus, read-out: minimum inhibitory concentration against MRSA): 1.2 µg/mL (≈ 0.828 µM)
- MIC ([2]; read-out: minimum inhibitory concentration against VRE): 500 µg/mL (≈ 345 µM)

Compound: CC(=O)NC[C@H]1CN(c2ccc(N3CCOCC3)c(F)c2)C(=O)O1 [zyvoxam]
- minimum inhibitory concentration against MRSA [1, 3]: 0.3 µg/mL (≈ 0.889 µM)
- minimum inhibitory concentration against VRE [2, 4]: 1.2 µg/mL (≈ 3.56 µM)

Compound: Nisin[1-12] polypeptide fragment
- highest concentration at which MRSA was not inhibited ([1]; MRSA, did not inhibit at as high as the stated concentration): > 10 µg/mL
- highest concentration at which VRE was not inhibited ([2]; VRE, did not inhibit at as high as the stated concentration): > 40 µg/mL

Compound: nisin
- minimum inhibitory concentration against MRSA [1, 3]: 0.3 to 0.6 µg/mL
- minimum inhibitory concentration against VRE [2, 4]: 5 to 10 µg/mL
